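GI50: concentration for 50% inhibition of growth. TGI marks complete inhibition of growth.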
Tests used:
Test in all cases: DTP human tumour cell line panel, 384-well format; in the data active means GI50 below about 0.43 µM; inactive means the rest
SNB-19 CNS = system: SNB-19 CNS
UACC-62 melanoma = system: UACC-62 melanoma
BT-549 breast = system: BT-549 breast
SF-539 CNS = system: SF-539 CNS
A549 NSCLC = system: A549 NSCLC
UACC-257 melanoma = system: UACC-257 melanoma
IGROV1 ovarian = system: IGROV1 ovarian
MOLT-4 leukemia = system: MOLT-4 leukemia
KM12 colon = system: KM12 colon
SF-268 CNS = system: SF-268 CNS
OVCAR-4 ovarian = system: OVCAR-4 ovarian
OVCAR-8 ovarian = system: OVCAR-8 ovarian
DU-145 prostate = system: DU-145 prostate
MCF7 breast = system: MCF7 breast
786-0 renal = system: 786-0 renal
HCT-116 colon = system: HCT-116 colon
CAKI-1 renal = system: CAKI-1 renal
COLO 205 colon = system: COLO 205 colon
HCT-15 colon = system: HCT-15 colon
EKVX NSCLC = system: EKVX NSCLC
UO-31 renal = system: UO-31 renal
SK-OV-3 ovarian = system: SK-OV-3 ovarian
U251 glioblastoma = system: U251 glioblastoma
K-562 leukemia = system: K-562 leukemia
SK-MEL-5 melanoma = system: SK-MEL-5 melanoma
SW-620 colon = system: SW-620 colon
T-47D breast = system: T-47D breast
HCC-2998 colon = system: HCC-2998 colon
HS 578T breast = system: HS 578T breast
RXF 393 renal = system: RXF 393 renal
OVCAR-3 ovarian = system: OVCAR-3 ovarian
MDA-MB-468 breast = system: MDA-MB-468 breast
HOP-92 NSCLC = system: HOP-92 NSCLC
NCI/ADR-RES ovarian = system: NCI/ADR-RES ovarian
ACHN renal = system: ACHN renal
MALME-3M melanoma = system: MALME-3M melanoma
HL-60(TB) leukemia = system: HL-60(TB) leukemia
NCI-H522 lung = system: NCI-H522 lung
MDA-MB-231 breast = system: MDA-MB-231 breast
SNB-75 CNS = system: SNB-75 CNS
MDA-MB-435 melanoma = system: MDA-MB-435 melanoma
TK-10 renal = system: TK-10 renal
NCI-H322M lung = system: NCI-H322M lung
NCI-H226 lung = system: NCI-H226 lung
HT29 colon = system: HT29 colon
SR leukemia = system: SR leukemia
M14 melanoma = system: M14 melanoma
SF-295 CNS = system: SF-295 CNS
A498 renal = system: A498 renal
LOX IMVI melanoma = system: LOX IMVI melanoma
NCI-H23 lung = system: NCI-H23 lung
HOP-62 NSCLC = system: HOP-62 NSCLC
SK-MEL-28 melanoma = system: SK-MEL-28 melanoma
RPMI-8226 leukemia = system: RPMI-8226 leukemia
CCRF-CEM leukemia = system: CCRF-CEM leukemia
PC-3 prostate = system: PC-3 prostate
SN12C renal = system: SN12C renal
NCI-H460 NSCLC = system: NCI-H460 NSCLC

Cc1ccccc1C(C(=O)NC1CCCCC1)N(C(=O)CNc1ccc(C#N)cc1)c1cccc(F)c1 (stereo unspecified)
88.7 µM: TGI (IGROV1 ovarian)
31.5 µM: TGI (OVCAR-4 ovarian)
18.5 µM: TGI (UACC-257 melanoma)
3.91 µM: TGI (HL-60(TB) leukemia)
24.7 µM: TGI (RXF 393 renal)
16.2 µM: TGI (SNB-75 CNS)
47.1 µM: TGI (SF-295 CNS)
67.7 µM: TGI (NCI-H522 lung)
16.6 µM: TGI (SNB-19 CNS)
4.61 µM: TGI (SR leukemia)
52.7 µM: TGI (BT-549 breast)
20.1 µM: TGI (HS 578T breast)
17.8 µM: TGI (SK-MEL-5 melanoma)
4.91 µM: TGI (UACC-62 melanoma)
21.4 µM: TGI (SF-539 CNS)
66.8 µM: TGI (SN12C renal)
56.1 µM: TGI (PC-3 prostate)
29.4 µM: TGI (MDA-MB-231 breast)
inactive: GI50 (SNB-19 CNS) 3.16 µM | GI50 (UACC-62 melanoma) 1.58 µM | GI50 (BT-549 breast) 7.62 µM | GI50 (SF-539 CNS) 5.6 µM | GI50 (A549 NSCLC) 25 µM | GI50 (UACC-257 melanoma) 3.77 µM | GI50 (IGROV1 ovarian) 8.13 µM | GI50 (MOLT-4 leukemia) > 100 µM | GI50 (KM12 colon) 7.76 µM | GI50 (SF-268 CNS) 7.32 µM | GI50 (OVCAR-4 ovarian) 5.82 µM | GI50 (OVCAR-8 ovarian) 4.15 µM | GI50 (DU-145 prostate) 12.6 µM | GI50 (MCF7 breast) 14.6 µM | GI50 ([…]-0 renal) 3.83 µM | GI50 (HCT-116 colon) 4.46 µM | GI50 (CAKI-1 renal) 4.93 µM | GI50 (COLO 205 colon) 3.04 µM | GI50 (HCT-15 colon) 65.1 µM | GI50 (EKVX NSCLC) 11.6 µM | GI50 (UO-31 renal) 57.3 µM | GI50 (SK-OV-3 ovarian) 8.22 µM | GI50 (U251 glioblastoma) 15.7 µM | GI50 (K-562 leukemia) 3.25 µM | GI50 (SK-MEL-5 melanoma) 3.12 µM | GI50 (SW-620 colon) 3.4 µM | GI50 (T-47D breast) 7.89 µM | GI50 (HCC-2998 colon) 1.48 µM | GI50 (HS 578T breast) 3.36 µM | GI50 (RXF 393 renal) 4.41 µM | GI50 (OVCAR-3 ovarian) 3.58 µM | GI50 (MDA-MB-468 breast) 51.7 µM | GI50 (HOP-92 NSCLC) 3.45 µM | GI50 (NCI/ADR-RES ovarian) 46.9 µM | GI50 (ACHN renal) 11.6 µM | GI50 (MALME-3M melanoma) 0.713 µM | GI50 (HL-60(TB) leukemia) 1.15 µM | GI50 (NCI-H522 lung) 7.86 µM | GI50 (MDA-MB-231 breast) 5.23 µM | GI50 (SNB-75 CNS) 2.61 µM | GI50 (MDA-MB-435 melanoma) 8.14 µM | GI50 (TK-10 renal) 19 µM | GI50 (NCI-H322M lung) 13.4 µM | GI50 (NCI-H226 lung) 4.84 µM | GI50 (HT29 colon) 5.56 µM | GI50 (SR leukemia) 1.77 µM | GI50 (M14 melanoma) 2.56 µM | GI50 (SF-295 CNS) 15 µM | GI50 (A498 renal) 6.17 µM | GI50 (LOX IMVI melanoma) 24.7 µM | GI50 (NCI-H23 lung) 4.65 µM | GI50 (HOP-62 NSCLC) 6.88 µM | GI50 (SK-MEL-28 melanoma) 2.49 µM | GI50 (RPMI-8226 leukemia) 8.12 µM | GI50 (CCRF-CEM leukemia) 98.4 µM | GI50 (PC-3 prostate) 7.84 µM | GI50 (SN12C renal) 4.43 µM | GI50 (NCI-H460 NSCLC) 3.86 µM
45.3 µM: TGI (HOP-62 NSCLC)
35.3 µM: TGI (OVCAR-3 ovarian)
11.6 µM: TGI (SK-MEL-28 melanoma)
17 µM: TGI (HOP-92 NSCLC)
58.3 µM: TGI (OVCAR-8 ovarian)
13.1 µM: TGI (M14 melanoma)
11.2 µM: TGI (HCC-2998 colon)
2.59 µM: TGI (MALME-3M melanoma)
89.6 µM: TGI (KM12 colon)
> 100 µM: TGI (A549 NSCLC) | TGI (MOLT-4 leukemia) | TGI (DU-145 prostate) | TGI (MCF7 breast) | TGI (HCT-15 colon) | TGI (EKVX NSCLC) | TGI (UO-31 renal) | TGI (U251 glioblastoma) | TGI (K-562 leukemia) | TGI (SW-620 colon) | TGI (T-47D breast) | TGI (MDA-MB-468 breast) | TGI (NCI/ADR-RES ovarian) | TGI (ACHN renal) | TGI (MDA-MB-435 melanoma) | TGI (TK-10 renal) | TGI (NCI-H322M lung) | TGI (HT29 colon) | TGI (LOX IMVI melanoma) | TGI (RPMI-8226 leukemia) | TGI (CCRF-CEM leukemia) | TGI (NCI-H460 NSCLC)
24.4 µM: TGI (NCI-H23 lung)
22.7 µM: TGI (CAKI-1 renal)
40.4 µM: TGI (SK-OV-3 ovarian)
27.2 µM: TGI (NCI-H226 lung) | TGI (A498 renal)
33.9 µM: TGI (HCT-116 colon)
55.9 µM: TGI (SF-268 CNS)
20.7 µM: TGI (786-0 renal) | TGI (COLO 205 colon)

Reference: PubChem BioAssay (NCI)
